We go through 7 molecules from BindingDB's records for doi:10.1016/s0960-894x(03)00461-x (Eli Lilly, 2003).

pIC50: −log10 of the molar value.

Test in all cases: CDK Kinase Inhibition Assay
Common to all, as to conditions: 25 °C

For test [1], the target named is Cyclin-dependent kinase 2/G1/S-specific cyclin-E1 (Homo sapiens, UniProt P24941).
The target of test [2] is cAMP-dependent protein kinase catalytic subunit alpha (Bos taurus, UniProt P00517).
For test [3], the target named is Calcium/calmodulin-dependent protein kinase type II subunit alpha (Rattus norvegicus, UniProt P11275).
Calcium/calmodulin-dependent protein kinase type II subunit alpha, sequence (P11275 whole entry): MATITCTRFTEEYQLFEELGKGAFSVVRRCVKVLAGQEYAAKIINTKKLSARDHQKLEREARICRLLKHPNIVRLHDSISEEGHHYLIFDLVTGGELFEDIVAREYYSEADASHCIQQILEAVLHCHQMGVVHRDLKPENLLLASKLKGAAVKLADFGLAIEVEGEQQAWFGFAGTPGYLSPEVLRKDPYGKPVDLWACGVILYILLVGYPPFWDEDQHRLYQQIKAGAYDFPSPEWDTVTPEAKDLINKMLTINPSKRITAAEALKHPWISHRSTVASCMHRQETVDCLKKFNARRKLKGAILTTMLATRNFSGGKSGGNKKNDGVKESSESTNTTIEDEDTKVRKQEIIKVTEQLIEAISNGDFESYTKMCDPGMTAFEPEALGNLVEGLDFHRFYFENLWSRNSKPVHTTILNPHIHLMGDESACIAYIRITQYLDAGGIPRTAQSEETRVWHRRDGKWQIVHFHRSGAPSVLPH

`COc1ccc2c3c4c(c5c(ccc6ccn(C)c65)c3n(CCCN3CCC(O)CC3)c2c1)C(=O)NC4=O` [3-[3-(4-hydroxypiperidin-1-yl)propyl]-6-methoxy-18-methyl-3,13,18-triazahexacyclo[14.7.0.0^{2,10}.0^{4,9}.0^{11,15}.0^{17,21}]tricosa-1(16),2(10),4(9),5,7,11(15),17(21),19,22-nonaene-12,14-dione]: in test [1], the pIC50 was 5.68. Turning to `CCc1ccc2c(c1)[nH]c1c3ccc4ccn(C)c4c3c3c(c21)C(=O)NC3=O` [6-ethyl-18-methyl-3,13,18-triazahexacyclo[14.7.0.0^{2,10}.0^{4,9}.0^{11,15}.0^{17,21}]tricosa-1(16),2(10),4(9),5,7,11(15),17(21),19,22-nonaene-12,14-dione], the negative logarithm of the IC50 (pIC50) in test [2] is less than 4.70; in test [1], 6.44.

For `COc1ccc2c3c4c(c5c(ccc6ccn(C)c65)c3n(CCN3CCCCC3)c2c1)C(=O)NC4=O` [6-methoxy-18-methyl-3-[2-(piperidin-1-yl)ethyl]-3,13,18-triazahexacyclo[14.7.0.0^{2,10}.0^{4,9}.0^{11,15}.0^{17,21}]tricosa-1(16),2(10),4(9),5,7,11(15),17(21),19,22-nonaene-12,14-dione], the pIC50 in test [2] and in test [3] was less than 4.70 each time. On to `COc1ccc2c3c4c(c5c(ccc6ccn(C)c65)c3n(CCCN3CCOCC3)c2c1)C(=O)NC4=O` [6-methoxy-18-methyl-3-[3-(morpholin-4-yl)propyl]-3,13,18-triazahexacyclo[14.7.0.0^{2,10}.0^{4,9}.0^{11,15}.0^{17,21}]tricosa-1(16),2(10),4(9),5,7,11(15),17(21),19,22-nonaene-12,14-dione], for which the negative logarithm of the IC50 (pIC50) in test [2] and in test [3] was less than 4.70 each time. With `COc1ccc2c3c4c(c5c(ccc6ccn(C)c65)c3n(CCCN3CCSCC3)c2c1)C(=O)NC4=O` [6-methoxy-18-methyl-3-[3-(thiomorpholin-4-yl)propyl]-3,13,18-triazahexacyclo[14.7.0.0^{2,10}.0^{4,9}.0^{11,15}.0^{17,21}]tricosa-1(16),2(10),4(9),5,7,11(15),17(21),19,22-nonaene-12,14-dione], the negative logarithm of the IC50 (pIC50) in test [2] and in test [3] was less than 4.70 throughout. The molecule `Cn1ccc2cc(F)c3c4[nH]c5ccccc5c4c4c(c3c21)C(=O)NC4=O` [23-fluoro-18-methyl-3,13,18-triazahexacyclo[14.7.0.0^{2,10}.0^{4,9}.0^{11,15}.0^{17,21}]tricosa-1(16),2(10),4(9),5,7,11(15),17(21),19,22-nonaene-12,14-dione] gave a pIC50 in test [2] of less than 4.70. As for `COC(=O)C1CCN(CCc2cccc3c2[nH]c2c4ccc5ccn(C)c5c4c4c(c32)C(=O)NC4=O)CC1` [methyl 1-(2-{18-methyl-12,14-dioxo-3,13,18-triazahexacyclo[14.7.0.0^{2,10}.0^{4,9}.0^{11,15}.0^{17,21}]tricosa-1(16),2(10),4(9),5,7,11(15),17(21),19,22-nonaen-5-yl}ethyl)piperidine-4-carboxylate], in test [2], the pIC50 was less than 4.70.
